Data: patent US12509447B2, “Small molecule compound” (Technoderma Medicines Pte Ltd, priority 2019, dated 2025)

Key:
Type in all cases: biochemical
[1] = biological target: Tyk2 (Homo sapiens, UniProt P29597); experiment: Inhibition of JAK kinase activity, EZ Reader microfluidic phosphorylation of peptide substrate: Tyk2; conditions: Tyk2 kinase 1 nM; highest final concentration 10 μM, 1:3 serial dilution, 8 points, duplicates
In short: (§1)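 Microfluidic mobility-shift assay reading fluorescent peptide substrate and product; kinases at 20 nM (JAK1) or 1 nM (JAK2, JAK3, Tyk2) in pH 7.4 HEPES with 10 mM MgCl2, run at room temperature to 20-30% conversion, then stopped with EDTA. Compounds tested from 10 μM top, 1:3 over 8 points in duplicate; IC50 fitted from % conversion.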

[2] = biological target: JAK1 (Homo sapiens, UniProt P23458); experiment: Inhibition of JAK kinase activity, EZ Reader microfluidic phosphorylation of peptide substrate: JAK1; conditions: JAK1 kinase 20 nM; highest final concentration 10 μM, 1:3 serial dilution, 8 points, duplicates
In short: as §1

[3] = biological target: JAK2 (Homo sapiens, UniProt O60674); experiment: Inhibition of JAK kinase activity, EZ Reader microfluidic phosphorylation of peptide substrate: JAK2; conditions: JAK2 kinase 1 nM; highest final concentration 10 μM, 1:3 serial dilution, 8 points, duplicates
In short: as §1

[4] = biological target: T1, JAK3 (Homo sapiens, UniProt P52333); experiment: Inhibition of JAK kinase activity, EZ Reader microfluidic phosphorylation of peptide substrate: JAK3; conditions: JAK3 kinase 1 nM; highest final concentration 10 μM, 1:3 serial dilution, 8 points, duplicates
T1 sequence (P52333 1-1124): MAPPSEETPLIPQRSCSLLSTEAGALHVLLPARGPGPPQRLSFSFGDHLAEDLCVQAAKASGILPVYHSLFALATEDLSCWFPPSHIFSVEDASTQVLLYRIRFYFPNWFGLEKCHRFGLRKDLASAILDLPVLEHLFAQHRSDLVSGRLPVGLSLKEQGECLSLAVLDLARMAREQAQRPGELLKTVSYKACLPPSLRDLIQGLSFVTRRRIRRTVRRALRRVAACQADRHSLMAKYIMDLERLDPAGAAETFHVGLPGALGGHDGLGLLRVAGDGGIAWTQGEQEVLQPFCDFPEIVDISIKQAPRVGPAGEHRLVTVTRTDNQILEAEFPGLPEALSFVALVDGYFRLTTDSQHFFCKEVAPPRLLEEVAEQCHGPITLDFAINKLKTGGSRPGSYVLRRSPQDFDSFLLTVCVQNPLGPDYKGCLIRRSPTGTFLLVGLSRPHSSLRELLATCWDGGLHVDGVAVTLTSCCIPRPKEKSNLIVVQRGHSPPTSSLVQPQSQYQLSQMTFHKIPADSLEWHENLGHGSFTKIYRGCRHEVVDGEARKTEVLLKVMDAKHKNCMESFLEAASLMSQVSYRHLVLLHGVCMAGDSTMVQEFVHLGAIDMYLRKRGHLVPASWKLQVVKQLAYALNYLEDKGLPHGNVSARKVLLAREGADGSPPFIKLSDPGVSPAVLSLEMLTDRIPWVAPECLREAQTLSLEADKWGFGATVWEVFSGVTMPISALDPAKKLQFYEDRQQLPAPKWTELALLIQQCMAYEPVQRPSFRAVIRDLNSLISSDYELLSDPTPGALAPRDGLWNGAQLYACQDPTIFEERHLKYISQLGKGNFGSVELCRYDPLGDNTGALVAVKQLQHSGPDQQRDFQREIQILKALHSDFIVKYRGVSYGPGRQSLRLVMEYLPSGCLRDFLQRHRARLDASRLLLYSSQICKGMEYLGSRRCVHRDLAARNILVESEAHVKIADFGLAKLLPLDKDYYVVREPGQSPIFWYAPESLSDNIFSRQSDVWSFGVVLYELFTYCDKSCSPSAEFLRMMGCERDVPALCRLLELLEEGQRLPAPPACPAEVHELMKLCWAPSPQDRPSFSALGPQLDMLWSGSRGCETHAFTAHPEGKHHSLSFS
In short: as §1

Measured: IC50

Sequence of JAK2 (O60674 whole entry): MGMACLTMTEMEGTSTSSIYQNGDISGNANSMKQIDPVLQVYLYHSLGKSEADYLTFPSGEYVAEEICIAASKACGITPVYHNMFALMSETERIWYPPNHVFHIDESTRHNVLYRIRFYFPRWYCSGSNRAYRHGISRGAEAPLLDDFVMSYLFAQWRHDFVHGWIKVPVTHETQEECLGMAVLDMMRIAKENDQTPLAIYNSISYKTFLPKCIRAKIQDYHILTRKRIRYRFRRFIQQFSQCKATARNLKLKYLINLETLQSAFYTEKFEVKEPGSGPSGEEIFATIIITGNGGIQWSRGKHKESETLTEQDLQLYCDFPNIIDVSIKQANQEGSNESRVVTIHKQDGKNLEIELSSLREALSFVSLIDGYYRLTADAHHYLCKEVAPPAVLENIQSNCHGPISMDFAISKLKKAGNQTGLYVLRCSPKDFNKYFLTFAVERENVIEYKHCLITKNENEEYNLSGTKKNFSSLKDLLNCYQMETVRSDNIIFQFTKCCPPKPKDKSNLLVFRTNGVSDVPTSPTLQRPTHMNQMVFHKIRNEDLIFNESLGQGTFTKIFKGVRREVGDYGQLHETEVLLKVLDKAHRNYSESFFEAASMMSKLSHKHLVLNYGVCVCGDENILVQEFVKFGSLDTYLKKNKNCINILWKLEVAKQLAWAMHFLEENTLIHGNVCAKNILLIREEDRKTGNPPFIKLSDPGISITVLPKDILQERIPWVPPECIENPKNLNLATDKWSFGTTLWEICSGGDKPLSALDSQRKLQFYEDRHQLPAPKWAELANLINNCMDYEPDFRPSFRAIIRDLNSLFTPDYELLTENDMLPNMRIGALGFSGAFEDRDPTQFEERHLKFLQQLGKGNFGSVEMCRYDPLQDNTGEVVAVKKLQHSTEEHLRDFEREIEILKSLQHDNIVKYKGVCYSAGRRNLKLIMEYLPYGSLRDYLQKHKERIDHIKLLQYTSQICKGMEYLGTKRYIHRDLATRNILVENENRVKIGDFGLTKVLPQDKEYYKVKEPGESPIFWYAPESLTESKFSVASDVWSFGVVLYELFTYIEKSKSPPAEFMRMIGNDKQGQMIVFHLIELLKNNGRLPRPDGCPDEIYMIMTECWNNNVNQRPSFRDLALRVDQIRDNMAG
Sequence of JAK1 (P23458 whole entry): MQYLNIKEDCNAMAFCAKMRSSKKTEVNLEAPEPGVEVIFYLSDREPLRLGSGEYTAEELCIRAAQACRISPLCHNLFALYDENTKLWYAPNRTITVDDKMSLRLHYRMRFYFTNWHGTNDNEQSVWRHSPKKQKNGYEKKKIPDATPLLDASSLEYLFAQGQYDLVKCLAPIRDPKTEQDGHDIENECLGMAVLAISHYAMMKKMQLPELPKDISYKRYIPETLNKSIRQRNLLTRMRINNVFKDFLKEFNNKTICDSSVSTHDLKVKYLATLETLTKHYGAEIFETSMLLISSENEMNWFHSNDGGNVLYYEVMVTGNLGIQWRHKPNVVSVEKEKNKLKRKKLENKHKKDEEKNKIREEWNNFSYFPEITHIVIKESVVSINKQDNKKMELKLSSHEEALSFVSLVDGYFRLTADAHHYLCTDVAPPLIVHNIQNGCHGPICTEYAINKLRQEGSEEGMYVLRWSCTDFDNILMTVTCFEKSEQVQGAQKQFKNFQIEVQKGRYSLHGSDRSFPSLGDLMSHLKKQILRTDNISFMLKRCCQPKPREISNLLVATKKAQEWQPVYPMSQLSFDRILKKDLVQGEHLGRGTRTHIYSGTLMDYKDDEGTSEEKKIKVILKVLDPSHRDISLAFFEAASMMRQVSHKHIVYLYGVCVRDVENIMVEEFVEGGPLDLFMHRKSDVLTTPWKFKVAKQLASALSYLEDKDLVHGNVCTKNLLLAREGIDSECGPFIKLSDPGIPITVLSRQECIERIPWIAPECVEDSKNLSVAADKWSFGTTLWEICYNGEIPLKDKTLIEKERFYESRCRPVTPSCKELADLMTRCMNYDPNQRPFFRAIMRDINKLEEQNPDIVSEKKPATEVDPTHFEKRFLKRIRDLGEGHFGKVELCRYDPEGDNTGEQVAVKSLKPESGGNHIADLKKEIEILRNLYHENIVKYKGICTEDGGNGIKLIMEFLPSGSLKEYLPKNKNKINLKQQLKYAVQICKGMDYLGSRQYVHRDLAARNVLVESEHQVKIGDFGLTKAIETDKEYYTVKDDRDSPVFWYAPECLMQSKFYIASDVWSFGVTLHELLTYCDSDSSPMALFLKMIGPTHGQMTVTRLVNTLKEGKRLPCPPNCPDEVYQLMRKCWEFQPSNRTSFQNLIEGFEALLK
Sequence of Tyk2 (P29597 whole entry): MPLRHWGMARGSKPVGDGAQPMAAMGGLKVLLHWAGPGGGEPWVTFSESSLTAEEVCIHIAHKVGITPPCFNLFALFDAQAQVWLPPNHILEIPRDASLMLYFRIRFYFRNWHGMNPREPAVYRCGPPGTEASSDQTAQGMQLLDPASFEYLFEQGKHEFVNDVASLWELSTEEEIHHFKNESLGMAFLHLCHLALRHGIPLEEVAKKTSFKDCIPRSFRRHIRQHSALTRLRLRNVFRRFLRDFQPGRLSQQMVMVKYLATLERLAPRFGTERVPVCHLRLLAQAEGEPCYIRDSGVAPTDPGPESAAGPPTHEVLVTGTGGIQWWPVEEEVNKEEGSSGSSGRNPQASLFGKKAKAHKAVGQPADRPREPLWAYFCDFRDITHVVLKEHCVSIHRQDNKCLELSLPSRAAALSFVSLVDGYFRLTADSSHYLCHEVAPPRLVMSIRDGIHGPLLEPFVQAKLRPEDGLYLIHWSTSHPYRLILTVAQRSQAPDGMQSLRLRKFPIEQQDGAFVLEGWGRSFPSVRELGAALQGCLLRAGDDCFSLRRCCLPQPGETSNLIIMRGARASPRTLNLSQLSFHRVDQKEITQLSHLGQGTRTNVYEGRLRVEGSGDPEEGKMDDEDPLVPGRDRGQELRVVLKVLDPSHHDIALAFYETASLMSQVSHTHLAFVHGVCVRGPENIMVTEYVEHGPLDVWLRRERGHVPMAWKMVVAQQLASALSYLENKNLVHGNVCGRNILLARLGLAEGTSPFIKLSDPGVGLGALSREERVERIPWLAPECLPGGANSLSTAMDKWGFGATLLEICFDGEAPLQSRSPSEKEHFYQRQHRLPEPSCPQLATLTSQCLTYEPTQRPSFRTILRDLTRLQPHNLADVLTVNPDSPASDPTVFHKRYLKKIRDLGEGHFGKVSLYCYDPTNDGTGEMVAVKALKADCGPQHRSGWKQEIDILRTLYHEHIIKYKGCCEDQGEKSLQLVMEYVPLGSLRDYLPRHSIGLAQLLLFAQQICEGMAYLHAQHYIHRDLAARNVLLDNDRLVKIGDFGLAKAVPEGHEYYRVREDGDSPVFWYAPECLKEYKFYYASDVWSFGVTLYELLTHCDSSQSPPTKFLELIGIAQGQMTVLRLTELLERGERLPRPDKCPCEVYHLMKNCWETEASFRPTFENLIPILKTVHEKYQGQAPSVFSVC

CCCS(=O)(=O)N1CC(n2cc(-c3ccnc(Nc4cnn(C)c4)c3)cn2)C1 [TDM-180643, N-(1-methyl-1H-pyrazol-4-yl)-4-(1-(1-(propylsulfonyl)azetidin-3-yl)-1H-pyrazol-4-yl)pyridine-2-amine]
≥ 10 µM: all assays above

Cn1cc(Nc2cc(-c3cnn(C4CN(C(=O)CO)C4)c3)ccn2)cn1 [TDM-180644, 2-hydroxy-1-(3-(4-(2-((1-methyl-1H-pyrazol-4-yl)amino)pyridin-4-yl)-1H-pyrazol-1-yl)azetidin-1-yl)ethan-1-one]
≥ 10 µM: all assays above

CCCC(=O)N1CCC(n2cc(-c3ccnc(Nc4cnn(C)c4)n3)cn2)CC1 [TDM-180677, 1-(4-(4-(2-((1-methyl-1H-pyrazol-4-yl)amino)pyrimidin-4-yl)-1H-pyrazol-1-yl)piperidin-1-yl)butan-1-one]
≥ 10 µM: all assays above
